The text below walks through data of patent US20250228835A1, “PYRIDINYLOXYPYRIDINES AND RELATED COMPOUNDS AND THEIR USE IN TREATING MEDICAL CONDITIONS” (Rectify Pharmaceuticals, Inc., priority 2024, published 2025).

Where only a bound is given, the exact number is not on record here.

The target of one test is T1, ABCC6 WT (Homo sapiens, UniProt O95255).
T1 construct: expressed in transfected cells; host or cells: HEK-293 (transient, Lipofectamine 2000)
The test can be described thus: ABCC6 WT assay: HiBit protein expression. It is filed as cell-based. Conditions: HEK-293 cells transiently expressing HiBit-tagged ABCC6 WT; 24 h treatment; top concentration 20 μM; read-out: ABCC6 WT EC50, Emax. In outline: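 HEK-293 cells transiently transfected with HiBit-tagged human ABCC6 WT cDNA, seeded 24 h post-transfection, treated 24 h at 37° C with ten 2-fold doses (top 20 μM final, 0.15% DMSO). HiBit lytic luminescence reports protein expression; Emax and EC50 derived.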
On the technique in general: With HiBiT, luminescence reflects the tagged protein that the partner subunit can reach.

A further test deals with T2, ABCA4 P1380L (Homo sapiens, UniProt P78363, P1380L).
T2 construct: expressed in transfected cells
T2 sequence (P78363 whole entry P1380L): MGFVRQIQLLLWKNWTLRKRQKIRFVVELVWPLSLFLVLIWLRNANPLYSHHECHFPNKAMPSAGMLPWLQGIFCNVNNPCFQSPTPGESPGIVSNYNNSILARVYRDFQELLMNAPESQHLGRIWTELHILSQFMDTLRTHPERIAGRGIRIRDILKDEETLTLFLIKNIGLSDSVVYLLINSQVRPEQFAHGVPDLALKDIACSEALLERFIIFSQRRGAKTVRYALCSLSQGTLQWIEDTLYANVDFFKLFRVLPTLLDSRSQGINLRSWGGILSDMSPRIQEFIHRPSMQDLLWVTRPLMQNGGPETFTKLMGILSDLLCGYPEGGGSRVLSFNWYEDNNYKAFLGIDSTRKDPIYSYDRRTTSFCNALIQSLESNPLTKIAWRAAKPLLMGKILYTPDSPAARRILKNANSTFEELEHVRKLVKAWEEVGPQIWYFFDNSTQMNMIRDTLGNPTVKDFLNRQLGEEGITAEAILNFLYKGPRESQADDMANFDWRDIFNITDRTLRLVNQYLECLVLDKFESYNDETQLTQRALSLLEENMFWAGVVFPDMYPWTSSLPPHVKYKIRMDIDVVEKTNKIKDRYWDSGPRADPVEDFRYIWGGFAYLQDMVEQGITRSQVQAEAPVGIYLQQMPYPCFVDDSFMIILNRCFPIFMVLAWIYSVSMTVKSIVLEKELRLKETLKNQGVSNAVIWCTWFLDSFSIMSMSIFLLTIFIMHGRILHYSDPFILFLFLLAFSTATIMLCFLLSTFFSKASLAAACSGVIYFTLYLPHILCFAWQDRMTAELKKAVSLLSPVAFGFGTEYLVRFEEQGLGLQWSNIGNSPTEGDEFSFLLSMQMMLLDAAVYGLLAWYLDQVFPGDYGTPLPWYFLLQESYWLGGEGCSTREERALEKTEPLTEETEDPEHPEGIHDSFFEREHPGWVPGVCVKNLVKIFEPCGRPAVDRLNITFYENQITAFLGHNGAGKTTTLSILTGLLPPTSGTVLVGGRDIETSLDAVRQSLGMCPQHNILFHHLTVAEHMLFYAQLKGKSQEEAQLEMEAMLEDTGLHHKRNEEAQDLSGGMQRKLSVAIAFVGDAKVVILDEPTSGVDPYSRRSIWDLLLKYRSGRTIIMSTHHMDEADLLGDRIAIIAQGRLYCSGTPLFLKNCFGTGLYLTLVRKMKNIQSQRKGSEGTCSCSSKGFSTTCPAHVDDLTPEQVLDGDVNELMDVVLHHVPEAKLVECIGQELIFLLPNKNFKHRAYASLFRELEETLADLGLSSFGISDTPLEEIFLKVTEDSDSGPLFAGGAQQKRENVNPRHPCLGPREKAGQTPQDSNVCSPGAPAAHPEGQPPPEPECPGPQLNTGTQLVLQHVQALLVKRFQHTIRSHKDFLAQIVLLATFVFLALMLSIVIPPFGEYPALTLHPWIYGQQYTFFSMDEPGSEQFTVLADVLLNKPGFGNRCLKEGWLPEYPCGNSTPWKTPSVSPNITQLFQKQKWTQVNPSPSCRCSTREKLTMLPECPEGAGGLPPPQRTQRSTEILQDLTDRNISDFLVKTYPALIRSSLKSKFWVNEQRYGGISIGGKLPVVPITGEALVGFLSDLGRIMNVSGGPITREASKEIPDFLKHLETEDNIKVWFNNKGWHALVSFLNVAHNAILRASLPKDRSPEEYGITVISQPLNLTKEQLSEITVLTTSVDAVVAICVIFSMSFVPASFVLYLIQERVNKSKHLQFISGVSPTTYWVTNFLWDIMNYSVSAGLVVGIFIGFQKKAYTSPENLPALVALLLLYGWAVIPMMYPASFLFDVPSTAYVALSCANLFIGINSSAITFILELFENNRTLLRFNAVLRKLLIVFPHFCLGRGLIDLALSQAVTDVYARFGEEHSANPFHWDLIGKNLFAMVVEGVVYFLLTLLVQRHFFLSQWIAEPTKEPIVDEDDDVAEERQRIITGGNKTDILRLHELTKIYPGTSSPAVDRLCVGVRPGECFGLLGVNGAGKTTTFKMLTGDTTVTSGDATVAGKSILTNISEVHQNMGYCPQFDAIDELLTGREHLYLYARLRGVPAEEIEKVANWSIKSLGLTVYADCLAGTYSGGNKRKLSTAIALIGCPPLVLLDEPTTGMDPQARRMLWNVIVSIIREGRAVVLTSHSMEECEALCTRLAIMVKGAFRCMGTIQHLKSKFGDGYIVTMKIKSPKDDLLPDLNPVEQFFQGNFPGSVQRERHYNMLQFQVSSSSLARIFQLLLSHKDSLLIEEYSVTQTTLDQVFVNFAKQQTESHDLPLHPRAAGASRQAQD
The test can be described thus: A4 correction dose-response assay: ABCA4 P1380L HiBit protein expression. Conditions: HEK-293 cells stably expressing HiBit-tagged ABCA4 P1380L; 24 h treatment; top concentration 30 μM; read-out: ABCA4 P1380L EC50, Emax. It is filed as cell-based. The procedure, abridged:
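Cells transfected with HiBit-tagged human ABCA4 P1380L cDNA were treated for 24 h at 37°C with an eleven-point dilution series (top final 30 μM, 0.3% DMSO).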

T1 sequence (O95255 whole entry): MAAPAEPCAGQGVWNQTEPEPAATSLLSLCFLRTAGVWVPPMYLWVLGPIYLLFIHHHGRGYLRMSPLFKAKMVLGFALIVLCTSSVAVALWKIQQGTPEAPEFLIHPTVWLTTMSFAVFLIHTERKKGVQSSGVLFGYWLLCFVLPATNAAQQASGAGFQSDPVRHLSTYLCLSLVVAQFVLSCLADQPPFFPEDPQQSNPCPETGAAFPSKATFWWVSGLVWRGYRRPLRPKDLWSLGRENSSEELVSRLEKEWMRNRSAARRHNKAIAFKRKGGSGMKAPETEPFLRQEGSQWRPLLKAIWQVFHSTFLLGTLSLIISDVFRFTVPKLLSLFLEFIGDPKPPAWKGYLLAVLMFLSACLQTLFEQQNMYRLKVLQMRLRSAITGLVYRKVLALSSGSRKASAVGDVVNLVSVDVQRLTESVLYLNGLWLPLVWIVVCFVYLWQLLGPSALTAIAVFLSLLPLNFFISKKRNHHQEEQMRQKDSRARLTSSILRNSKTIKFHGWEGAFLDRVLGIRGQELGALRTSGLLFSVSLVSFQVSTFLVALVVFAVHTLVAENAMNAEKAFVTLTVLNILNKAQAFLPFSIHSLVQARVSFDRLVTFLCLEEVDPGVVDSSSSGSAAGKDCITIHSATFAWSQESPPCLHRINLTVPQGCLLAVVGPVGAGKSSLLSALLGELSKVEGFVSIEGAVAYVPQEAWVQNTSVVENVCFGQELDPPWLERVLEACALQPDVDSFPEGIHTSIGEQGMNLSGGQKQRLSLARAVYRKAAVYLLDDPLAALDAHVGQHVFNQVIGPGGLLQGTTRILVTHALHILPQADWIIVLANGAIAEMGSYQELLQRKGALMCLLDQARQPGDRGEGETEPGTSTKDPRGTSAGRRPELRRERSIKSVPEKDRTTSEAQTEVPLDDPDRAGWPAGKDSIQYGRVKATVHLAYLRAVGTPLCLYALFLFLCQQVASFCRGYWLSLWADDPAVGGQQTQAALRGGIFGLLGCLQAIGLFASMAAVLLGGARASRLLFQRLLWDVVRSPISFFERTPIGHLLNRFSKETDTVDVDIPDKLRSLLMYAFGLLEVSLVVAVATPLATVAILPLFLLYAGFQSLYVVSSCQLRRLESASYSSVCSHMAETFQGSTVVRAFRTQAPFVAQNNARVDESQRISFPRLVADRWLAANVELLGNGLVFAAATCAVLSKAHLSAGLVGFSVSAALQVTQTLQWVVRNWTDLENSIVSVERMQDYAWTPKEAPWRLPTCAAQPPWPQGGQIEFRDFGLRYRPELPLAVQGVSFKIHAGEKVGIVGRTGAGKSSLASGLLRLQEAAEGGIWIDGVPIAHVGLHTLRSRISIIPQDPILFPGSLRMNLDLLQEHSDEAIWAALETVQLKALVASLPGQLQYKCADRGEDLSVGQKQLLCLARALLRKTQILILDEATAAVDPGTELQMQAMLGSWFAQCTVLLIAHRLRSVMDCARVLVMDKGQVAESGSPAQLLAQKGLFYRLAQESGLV

As to `Cc1cc(C)c(Oc2nc(N3CCC(C#N)CC3)ccc2NS(C)(=O)=O)c(C)c1` [Compound I-244], the EC50 – broadly, the concentration needed to bring the measured effect to its halfway point – on ABCC6 WT was in the range of 1 to 10 µM; at ABCA4 P1380L, 10 to 25 µM.
As for `Cc1cc(C(F)(F)F)nc(C)c1Oc1nc(-c2cncc(C#N)c2)ccc1NS(C)(=O)=O` [Compound I-240], the EC50 is less than 1 µM at ABCC6 WT and less than 25 µM at ABCA4 P1380L.
Consider `Cc1cc(C)c(Oc2nc(-n3cnc(C#N)c3)ccc2N(C)S(C)(=O)=O)c(C)c1` [Compound I-272], for which the EC50 on ABCC6 WT and at ABCA4 P1380L was 1 to 10 µM in each case.
Consider `Cc1cc(C)c(Oc2nc(-c3cncc(C#N)c3)ccc2S(=N)(=O)C2CC2)c(C)n1` (stereo not shown) [Compound I-248], for which the EC50 on ABCC6 WT and at ABCA4 P1380L was 1 to 10 µM each time.
Turning to `Cc1cc(C)c(Oc2nc(-c3cncc(C#N)c3)ccc2S(C)(=N)=O)c(C)n1` (stereo not shown) [Compound I-249], the figures for the EC50 on ABCC6 WT and at ABCA4 P1380L were not below 25 µM and more than 25 µM, respectively.
For the compound `Cc1cc(C)c(Oc2nc(-c3cncc(Cl)c3)cnc2NS(C)(=O)=O)c(C)c1` [Compound I-277], the EC50 at ABCC6 WT was less than 1 µM; at ABCA4 P1380L, less than 25 µM.
As for `Cc1cc(C2CC2)cc(C)c1Oc1nc(-c2cncc(C#N)c2)ccc1NS(C)(=O)=O` [Compound I-271], the EC50 at ABCC6 WT and at ABCA4 P1380L was less than 1 µM each time.
`Cc1cc(C)c(Oc2nc(-c3cncc(Cl)c3)ccc2NS(=O)(=O)C2CC2)c(C)n1` [Compound I-238]: the EC50 was less than 1 µM at ABCC6 WT and 1 to 10 µM at ABCA4 P1380L.
For `Cc1cc(C)c(Oc2nc(-c3cnc(C#N)c(Cl)c3)ccc2NS(C)(=O)=O)c(C)c1` [Compound I-36] the same measures were less than 1 µM and less than 1 µM.
With `Cc1cc(C)c(Oc2nc(N3CCN(C(=O)C(C)(C)C)CC3)ccc2NS(C)(=O)=O)c(C)c1` [Compound I-34], the EC50 lay in the range of 1 to 10 µM on ABCC6 WT and 10 to 25 µM on ABCA4 P1380L.
As to `Cc1cc(C2CC2)nc(C)c1Oc1nc(-n2cnc(C#N)c2)ccc1NS(C)(=O)=O` [Compound I-254], the EC50 on ABCC6 WT and on ABCA4 P1380L was less than 1 µM throughout.
In the case of `Cc1cc(C)c(Oc2nc(N3CCN(C(=O)N(C)C)CC3)ccc2NS(C)(=O)=O)c(C)c1` [Compound I-33], the EC50 was 1 to 10 µM on ABCC6 WT and more than 25 µM on ABCA4 P1380L.
For `Cc1cc(C)c(Oc2nc(-c3cc(C#N)cnc3C)ccc2NS(C)(=O)=O)c(C)n1` [Compound I-270] the same measures were 1 to 10 µM and less than 25 µM.
For `Cc1cc(C)c(Oc2nc(-c3cncc(Cl)c3)ccc2NS(=O)(=O)C(C)C)c(C)c1` [Compound I-29] the same measures were less than 1 µM and more than 25 µM.
For the compound `Cc1cc(C2CC2)nc(C2CC2)c1Oc1nc(-c2cncc(C#N)c2)ccc1S(=N)(=O)C1CC1` (stereo not shown) [Compound I-317], the EC50 was less than 1 µM on ABCC6 WT and more than 25 µM on ABCA4 P1380L.
For `Cc1cc(C)c(Oc2nc(-c3cncc(Cl)c3)ncc2NS(C)(=O)=O)c(C)n1` [Compound I-246] the same measures were less than 1 µM and less than 1 µM.
For `Cc1cc(C(F)F)nc(C2CC2)c1Oc1nc(-c2cncc(C#N)c2)ccc1S(=O)(=O)NC1COC1` [Compound I-321] the same measures were 1 to 10 µM and less than 25 µM.
For `Cc1cc(C2CC2)nc(C)c1Oc1nc(-c2cncc(C#N)c2)ccc1NS(=O)(=O)C1CCC1` [Compound I-252] the same measures were 1 to 10 µM and less than 1 µM.
In the case of `Cc1cc(C)c(Oc2nc(-c3cncc(C#N)c3)cnc2NS(C)(=O)=O)c(C)c1` [Compound I-275], the EC50 is less than 1 µM on ABCC6 WT and less than 25 µM on ABCA4 P1380L.
For `Cc1cc(C)c(Oc2nc(-c3cncc(C#N)c3)ccc2NS(=O)(=O)C2CC2)c(C)n1` [Compound I-266] the same measures were less than 1 µM and less than 1 µM.
As to `Cc1cc(C)c(Oc2nc(N3C4CC3CN(C(=O)C3CC3)C4)ccc2NS(C)(=O)=O)c(C)c1` [Compound I-35], the EC50 on ABCC6 WT was not below 25 µM; on ABCA4 P1380L, more than 25 µM.
For `Cc1cc(C)c(Oc2nc(N3CCN(C(=O)C4CCC4)CC3)ccc2NS(C)(=O)=O)c(C)c1` [Compound I-24] the same measures were less than 1 µM and 1 to 10 µM.
In the case of `CNC(=O)N1CCN(c2ccc(NS(C)(=O)=O)c(Oc3c(C)cc(C)cc3C)n2)CC1` [Compound I-27], the EC50 is 10 to 25 µM at ABCC6 WT and 1 to 10 µM on ABCA4 P1380L.
With `Cc1cc(C)c(Oc2nc(N3CCC(C#N)C3)ccc2NS(C)(=O)=O)c(C)c1` (single isomer, unassigned) [Compound I-261], the EC50 at ABCC6 WT fell in the range of 1 to 10 µM; at ABCA4 P1380L, 10 to 25 µM.
On to `Cc1cc(C)c(Oc2nc(-c3cc(C#N)c[nH]c3=O)ccc2NS(C)(=O)=O)c(C)n1` [Compound I-326], for which the concentration for a half-maximal effect (EC50) on ABCC6 WT was 1 to 10 µM; at ABCA4 P1380L, less than 1 µM.
The like results for `Cc1cc(C)c(Oc2nc(-c3cncc(C#N)c3)ccc2S(=N)(=O)C2CC2)c(C)c1` (stereo not shown) [Compound I-245] were, in that order, less than 1 µM and 1 to 10 µM.
The like results for `Cc1cc(C)c(Oc2nc(-c3cncc(C#N)c3)c(O)cc2NS(C)(=O)=O)c(C)n1` [Compound I-327] were, in that order, less than 1 µM and less than 1 µM.
For `Cc1cnc(Oc2nc(-c3cncc(C#N)c3)ccc2NS(C)(=O)=O)c(C)c1` [Compound I-250], the EC50 on ABCC6 WT was not below 25 µM; at ABCA4 P1380L, more than 25 µM.
The like results for `Cc1cc(C)c(Oc2nc(N3CCC4(CN(C(=O)C5CC5)C4)C3)ccc2NS(C)(=O)=O)c(C)c1` [Compound I-25] were, in that order, 1 to 10 µM and more than 25 µM.
For `Cc1cc(C)c(Oc2nc(-c3cncc(C#N)c3)ccc2S(N)(=O)=O)c(C)c1` [Compound I-280] the same measures were less than 1 µM and less than 1 µM.
In the case of `Cc1cc(C)c(Oc2nc(-c3cccc(C#N)n3)ccc2NS(C)(=O)=O)c(C)n1` [Compound I-241], the EC50 at ABCC6 WT was 10 to 25 µM; on ABCA4 P1380L, more than 25 µM.
For `Cc1cc(C)c(Oc2nc(-c3cncc(C#N)c3)ccc2S(C)(=N)=O)c(C)c1` (stereo not shown) [Compound I-279] the same measures were less than 1 µM and less than 1 µM.
For `Cc1cc(C)c(Oc2nc(-c3cncc(Cl)c3)cnc2NS(C)(=O)=O)c(C)n1` [Compound I-260] the same measures were 1 to 10 µM and more than 25 µM.
The like results for `Cc1cc(C)c(Oc2nc(N3CC4CC3CN4C(=O)C3CC3)ccc2NS(C)(=O)=O)c(C)c1` (single isomer, unassigned) [Compound I-18] were, in that order, 1 to 10 µM and 10 to 25 µM.
With `CNS(=O)(=O)c1ccc(-c2cncc(C#N)c2)nc1Oc1c(C)cc(C)nc1C` [Compound I-265], the EC50 at ABCC6 WT and at ABCA4 P1380L was 1 to 10 µM in each case.
As to `Cc1cc(C)c(Oc2nc(N3CCN(C(=O)OC(C)C)CC3)ccc2NS(C)(=O)=O)c(C)c1` [Compound I-32], the EC50 on ABCC6 WT and at ABCA4 P1380L was 1 to 10 µM throughout.
In the case of `Cc1cc(C2CC2)nc(C)c1Oc1nc(-c2cncc(C#N)c2)ccc1NS(=O)(=O)C1CC1` [Compound I-264], the EC50 on ABCC6 WT was not below 25 µM; on ABCA4 P1380L, less than 1 µM.
As for `Cc1cc(C2CC2)nc(C)c1Oc1nc(-n2ccc(C#N)n2)ccc1NS(C)(=O)=O` [Compound I-255], the figures for the EC50 at ABCC6 WT and at ABCA4 P1380L were 1 to 10 µM and more than 25 µM, respectively.
Take `CCCS(=O)(=O)Nc1ccc(-c2cncc(C#N)c2)nc1Oc1c(C)cc(C)nc1C` [Compound I-242]: the values for the EC50 at ABCC6 WT and at ABCA4 P1380L were less than 1 µM and 1 to 10 µM, respectively.
For `Cc1cc(C)c(Oc2nc(-c3cncc(C#N)c3)ccc2NS(=O)(=O)C2COC2)c(C)c1` [Compound I-267] the same measures were less than 1 µM and less than 25 µM.
For `Cc1cc(C)c(Oc2nc(N3CC4(CN(C(=O)C5CC5)C4)C3)ccc2NS(C)(=O)=O)c(C)c1` [Compound I-38] the same measures were not below 25 µM and more than 25 µM.
